From ChEMBL document CHEMBL2406975, “β-Secretase Inhibitors for the Treatment of Alzheimer's Disease and Down's Syndrome” (ACS Med Chem Lett, 2013) come the findings set out here.

pIC50: −log10 of the molar value.

For the test, the target named is Beta-secretase 1 (Homo sapiens, UniProt P56817). Briefly: Inhibition of BACE1 in human SH-SY5Y cells assessed as release of sAPPbeta after 17 hrs. The test is classed as cell-based.
Beta-secretase 1, sequence (P56817 whole entry): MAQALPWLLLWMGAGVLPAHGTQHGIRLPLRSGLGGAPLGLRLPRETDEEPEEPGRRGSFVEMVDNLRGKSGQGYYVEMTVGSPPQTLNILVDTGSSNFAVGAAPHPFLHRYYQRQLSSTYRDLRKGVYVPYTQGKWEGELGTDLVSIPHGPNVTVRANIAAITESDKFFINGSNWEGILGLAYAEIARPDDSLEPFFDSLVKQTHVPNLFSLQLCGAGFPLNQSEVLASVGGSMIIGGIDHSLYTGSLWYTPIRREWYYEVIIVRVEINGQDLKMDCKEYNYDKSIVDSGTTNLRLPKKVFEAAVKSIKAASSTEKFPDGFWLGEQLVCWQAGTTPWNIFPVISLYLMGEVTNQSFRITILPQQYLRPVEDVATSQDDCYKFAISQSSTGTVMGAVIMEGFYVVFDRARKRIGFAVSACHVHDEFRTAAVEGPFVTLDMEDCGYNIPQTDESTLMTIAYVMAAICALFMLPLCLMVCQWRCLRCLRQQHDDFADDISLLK
By pIC50 is commonly meant −log10 of the IC50, conventionally taken in molar units. Regarding `CC#Cc1cncc(-c2ccc3c(c2)C2(C=C(F)C(N)=N2)[C@]2(CC[C@@H](OC)CC2)C3)c1` (some centres undefined), the pIC50 was 8.96.

In the case of `CO[C@H]1CC[C@]2(CC1)Cc1ccc(-c3cncnc3)cc1C21C=C(F)C(N)=N1` (some centres undefined), the pIC50 is 8.96.

As to `CC#Cc1cncc(-c2ccc3c(c2)C2(C=C(F)C(N)=N2)[C@]2(CC[C@H](OC)CC2)C3)c1` (some centres undefined), the pIC50 is 10.51.

Regarding `CC1(C)Cc2ccc(-c3cncnc3)cc2C12C=C(F)C(N)=N2` (centres undefined), the pIC50 was 6.77.
